Reference: article PMC12649225, “Machine Learning-Identified Potent Antimicrobial Peptides Against Multidrug-Resistant Bacteria and Skin Infections” (Antibiotics, 2025)
Residues, ends and D or L forms follow the SMILES beside them.

Columns and labels:
A. baumannii RUH875 [1] = assay type: cell-based; conditions: for LC99.9 A. baumannii RUH875 50% Plasma 18 h: RUH875, 18 h
Protocol: (§1) The bacterial strains used in this study included S. aureus JAR060131 [54] and the MDR ESKAPE pathogens Enterococcus faecium LUH15122, S. aureus LUH14616, Klebsiella pneumoniae LUH15104, A. baumannii RUH875 [55], Pseudomonas aeruginosa LUH15103, Enterobacter cloacae LUH15114, and the colistin-resistant Escherichia coli LUH15117. Before each experiment, bacteria from frozen stocks were cultured at 37 °C for 18–24 h on sheep blood agar plates (BioMérieux, Marcy-l’Étoile, France). All strains were then cultured from colonies either in tryptic soy broth (TSB; Oxoid, Basingstoke, UK) for A. baumannii, S. aureus, and E. faecium, or in brain heart infusion broth (BHI; Oxoid) for K. pneumoniae, P. aeruginosa, E. cloacae, and E. coli at 37 °C with shaking at 120 rpm for 18–24 h. Subsequently, bacteria were cultured to mid-logarithmic phase in the media described above at 37 °C with shaking at 120 rpm for 3 h. Bacteria were then washed twice with PBS and diluted to the required inoculum suspension concentration in Roswell Park Memorial Institute (RPMI)-1640 medium containing 20 mM HEPES and L-glutamine but without sodium bicarbonate (Sigma-Aldrich; hereafter referred to as RPMI), based on optical density at 620 nm. RPMI was selected because it supports bacterial growth without impairing AMP activity.
(§2) Bactericidal activity was assessed as described by de Breij et al.. Briefly, mid-logarithmic phase bacterial cultures were diluted to a final concentration of 1 × 10^7 colony-forming units (CFU)/mL in RPMI. Then, 10 µL was added to a final volume of 100 µL in RPMI (final concentration: 1 × 10^6 CFU/mL). Cultures were exposed to peptides either in RPMI or RPMI supplemented with 50% (v/v) human plasma (hereafter referred to as 50% plasma), obtained from four healthy volunteers after informed consent, frozen after collection, and pooled (Sanquin, Amsterdam, The Netherlands). Assays were performed in duplicate using round-bottom polypropylene microtiter plates (Costar, Arlington, VA, USA) and repeated three times. In the initial screening phase (Table 1, Table 2 and Table S1), peptide solutions of 1, 10, and 100 μM (final concentration) were tested against A. baumannii RUH875 and S. aureus JAR060131 in RPMI and in 50% plasma. After this selection process, two lead candidates, their RI variants, and reference peptides were tested with a final concentration range of 0.12 to 120 µM (two-fold dilutions) in RPMI and in 50% plasma (Table 3). The peptides were also tested against ESKAPE pathogens, with Synthetic Antimicrobial and Antibiofilm Peptide (SAAP)-148 as a reference peptide (Table 4).RPMI or 50% plasma served as no-treatment controls. After 2 and 18 h of incubation at 37 °C with shaking at 120 rpm in a humidified environment, the numbers of viable bacteria were quantified. Bactericidal activity was expressed as the lethal concentration 99.9% (LC99.9), defined as the lowest peptide concentration that killed ≥99.9% of bacteria within 2 h (LC99.9_2h) or 18 h (LC99.9_18h) compared to the initial inoculum.

E. cloacae LUH15114 = assay type: cell-based; conditions: for LC99.9 E. cloacae LUH15114 50% Plasma 2 h / LC99.9 E. cloacae LUH15114 RPMI 2 h: LUH15114, 2 h
Protocol: as §1, §2

E. coli LUH15117 = assay type: cell-based; conditions: for LC99.9 E. coli LUH15117 RPMI 2 h: LUH15117, 2 h; for LC99.9 E. coli LUH15117 RPMI 18 h: LUH15117, 18 h
Protocol: as §1, §2

E. faecium LUH15122 = assay type: cell-based; conditions: for LC99.9 E. faecium LUH15122 50% Plasma 18 h / LC99.9 E. faecium LUH15122 RPMI 18 h: LUH15122, 18 h
Protocol: as §1, §2

K. pneumoniae LUH15104 = assay type: cell-based; conditions: for LC99.9 K. pneumoniae LUH15104 50% Plasma 2 h / LC99.9 K. pneumoniae LUH15104 RPMI 2 h: LUH15104, 2 h; for LC99.9 K. pneumoniae LUH15104 50% Plasma 18 h / LC99.9 K. pneumoniae LUH15104 RPMI 18 h: LUH15104, 18 h
Protocol: as §1, §2

P. aeruginosa LUH15103 = assay type: cell-based; conditions: for LC99.9 P. aeruginosa LUH15103 50% Plasma 2 h / LC99.9 P. aeruginosa LUH15103 RPMI 2 h: LUH15103, 2 h; for LC99.9 P. aeruginosa LUH15103 50% Plasma 18 h / LC99.9 P. aeruginosa LUH15103 RPMI 18 h: LUH15103, 18 h
Protocol: as §1, §2

S. aureus JAR060131 = assay type: cell-based; conditions: for LC99.9 S. aureus JAR060131 50% Plasma 18 h: JAR060131, 18 h
Protocol: as §1, §2

S. aureus LUH14616 = assay type: cell-based
Protocol: as §1, §2

[2] = system: BJ human skin fibroblast cells; test: LDH leakage assay (membrane integrity); conditions: lowest concentration causing >30% LDH leakage; BJ fibroblasts; 24 h; DMEM with 2% FBS; 0.05-60 µM
Protocol: BJ human skin fibroblast cells (ATCC CRL-2522; RRID: CVCL_3653; LGC Standards, Germany (September 2023)) were cultured in Dulbecco’s Modified Eagle Medium (DMEM; Gibco, Waltham, MA, USA) supplemented with 10% (v/v) foetal bovine serum (FBS; Sigma-Aldrich) and 1% (v/v) penicillin/streptomycin (pen/strep; Gibco). Cell suspensions (5 × 10^5 cells/mL) were seeded into 96-well plates (100 μL/well; Thermo Scientific, Waltham, MA, USA) and allowed to adhere for 24 h. Monolayers were then exposed to two-fold serial dilutions of GDST peptides, their RI variants, and reference peptides (final concentrations: 0.05 to 60 µM) in fresh DMEM with 2% (v/v) FBS for 24 h at 37 °C in a humidified atmosphere with 5% CO2.
Cell viability and membrane integrity were assessed using the water-soluble tetrazolium salt (WST-1; Roche, Basel, Switzerland) assay and the lactate dehydrogenase (LDH; Abcam, Cambridge, UK) assay, respectively, according to manufacturer instructions. Results were expressed as percentages of metabolic activity and LDH leakage relative to untreated control cells and the positive lysis control, respectively. The cytotoxic concentration was defined as the lowest peptide concentration causing <70% metabolic activity and >30% LDH leakage. All experiments were performed in triplicate.

A. baumannii RUH875 [3] = test: SYTOX Green membrane permeabilization assay; assay type: cell-based, Acinetobacter baumannii; conditions: RPMI, 1 μM SYTOX Green; for SYTOX fluorescence intensity, A. baumannii: 1- and 2-fold the LC99.9_2h concentrations, over 90 min
Protocol: Control samples were exposed to RPMI only. As a positive control, heat-killed bacteria were incubated at 95 °C for 10 min to induce maximum membrane permeabilization. Fluorescence (excitation: 485 nm, emission: 520 nm) was monitored every minute for 90 min at 37 °C using a […] plate reader (Ortenberg, Germany), with peptides and positive controls added after the third cycle. Background fluorescence (SYTOX Green alone) was subtracted from all values. All assays were performed in triplicate and repeated twice independently.

| Compound | LC99.9 A. baumannii RUH875 50% Plasma 18 h (A. baumannii RUH875 [1]) | LC99.9 E. cloacae LUH15114 50% Plasma 2 h (E. cloacae LUH15114) | LC99.9 E. cloacae LUH15114 RPMI 2 h (E. cloacae LUH15114) | LC99.9 E. coli LUH15117 RPMI 2 h (E. coli LUH15117) | LC99.9 E. coli LUH15117 RPMI 18 h (E. coli LUH15117) | LC99.9 E. faecium LUH15122 RPMI 2 h (E. faecium LUH15122; LUH15122, 2 h) | LC99.9 E. faecium LUH15122 50% Plasma 18 h (E. faecium LUH15122) | LC99.9 E. faecium LUH15122 RPMI 18 h (E. faecium LUH15122) | LC99.9 K. pneumoniae LUH15104 50% Plasma 2 h (K. pneumoniae LUH15104) | LC99.9 K. pneumoniae LUH15104 RPMI 2 h (K. pneumoniae LUH15104) | LC99.9 K. pneumoniae LUH15104 50% Plasma 18 h (K. pneumoniae LUH15104) | LC99.9 K. pneumoniae LUH15104 RPMI 18 h (K. pneumoniae LUH15104) | LC99.9 P. aeruginosa LUH15103 50% Plasma 2 h (P. aeruginosa LUH15103) | LC99.9 P. aeruginosa LUH15103 RPMI 2 h (P. aeruginosa LUH15103) | LC99.9 P. aeruginosa LUH15103 50% Plasma 18 h (P. aeruginosa LUH15103) | LC99.9 P. aeruginosa LUH15103 RPMI 18 h (P. aeruginosa LUH15103) | LC99.9 S. aureus JAR060131 50% Plasma 2 h (S. aureus JAR060131; JAR060131, 2 h) | LC99.9 S. aureus JAR060131 50% Plasma 18 h (S. aureus JAR060131) | LC99.9 S. aureus LUH14616 50% Plasma 2 h (S. aureus LUH14616; LUH14616, 2 h) | Cytotoxicity LDH Leakage >30% [2] | also measured |
| --- | --- | --- | --- | --- | --- | --- | --- | --- | --- | --- | --- | --- | --- | --- | --- | --- | --- | --- | --- | --- | --- |
| CC[C@@H](C)[C@@H](NC(=O)[C@@H](C)NC(=O)[C@@H](CCCCN)NC(=O)[C@@H](CCCCN)NC(=O)[C@@H](Cc1c[nH]c2ccccc12)NC(=O)[C@@H](Cc1c[nH]c2ccccc12)NC(=O)[C@@H](CCCNC(=N)N)NC(=O)[C@@H](CC(C)C)NC(=O)[C@@H](CC(C)C)NC(C)=O)C(=O)N[C@H](CCCCN)C(=O)N[C@@H](C(=O)N[C@H](Cc1c[nH]c2ccccc12)C(=O)N[C@H](CCCNC(=N)N)C(=O)N[C@H](CCCCN)C(N)=O)C(C)C [GDST-038-RI] (HELM PEPTIDE1{[ac].[dL].[dL].[dR].[dW].[dW].[dK].[dK].[dA].[dI].[dK].[dV].[dW].[dR].[dK].[am]}$$$$V2.0; N-terminus and C-terminus assumed) | 0.94 µM | 60 µM | 30 µM | 3.75 µM | 0.94 µM | 3.75 µM | 3.75 µM | 0.94 µM | 15 µM | 15 µM | 3.75 µM | 7.5 µM | 30 µM | 15 µM | 15 µM | 7.5 µM | 3.75 µM | 3.75 µM | 30 µM | 3.75 µM | LC99.9 S. aureus LUH14616 RPMI 18 h (S. aureus LUH14616; LUH14616, 18 h): 0.47 µM; SYTOX fluorescence intensity, A. baumannii (A. baumannii RUH875 [3]): fluorescence levels similar to heat-killed controls |
| CC[C@@H](C)[C@@H](NC(=O)[C@@H](CC(C)C)NC(=O)[C@@H](CCCCN)NC(=O)[C@@H](CCCCN)NC(=O)[C@H](NC(=O)[C@@H](Cc1c[nH]c2ccccc12)NC(=O)[C@@H](CCCNC(=N)N)NC(=O)[C@@H](Cc1ccccc1)NC(=O)[C@@H](CC(C)C)NC(C)=O)C(C)C)C(=O)N[C@H](CCCCN)C(=O)N[C@@H](C(=O)N[C@H](Cc1c[nH]c2ccccc12)C(=O)N[C@H](CCCNC(=N)N)C(=O)N[C@H](CCCCN)C(N)=O)C(C)C [GDST-045-RI] (HELM PEPTIDE1{[ac].[dL].[dF].[dR].[dW].[dV].[dK].[dK].[dL].[dI].[dK].[dV].[dW].[dR].[dK].[am]}$$$$V2.0; N-terminus and C-terminus assumed) | 0.94 µM | 120 µM | 15 µM | 3.75 µM | 1.88 µM | 0.94 µM | 3.75 µM | 0.94 µM | 15 µM | 15 µM | 7.5 µM | 7.5 µM | 30 µM | 3.75 µM | 30 µM | 3.75 µM | 3.75 µM | 1.88 µM | 15 µM | 3.75 µM | LC99.9 A. baumannii RUH875 50% Plasma 2 h (A. baumannii RUH875 [1]; RUH875, 2 h): 1.88 µM; LC99.9 E. cloacae LUH15114 50% Plasma 18 h (E. cloacae LUH15114; LUH15114, 18 h): 30 µM; LC99.9 E. cloacae LUH15114 RPMI 18 h (E. cloacae LUH15114; LUH15114, 18 h): 3.75 µM; LC99.9 E. faecium LUH15122 50% Plasma 2 h (E. faecium LUH15122; LUH15122, 2 h): 1.88 µM; LC99.9 S. aureus JAR060131 RPMI 2 h (S. aureus JAR060131; JAR060131, 2 h): 1.88 µM; LC99.9 S. aureus LUH14616 RPMI 2 h (S. aureus LUH14616; LUH14616, 2 h): 0.94 µM; LC99.9 S. aureus LUH14616 50% Plasma 18 h (S. aureus LUH14616; LUH14616, 18 h): 1.88 µM; LC99.9 S. aureus LUH14616 RPMI 18 h (S. aureus LUH14616; LUH14616, 18 h): 0.94 µM; SYTOX fluorescence intensity, A. baumannii (A. baumannii RUH875 [3]): fluorescence levels similar to heat-killed controls |
| Ac-LKRVWKRVFKLLKRYWRQLKKPVR-NH2 (N-terminus and C-terminus assumed) [SAAP-148, reference compound] | – | – | – | – | – | – | – | – | – | – | – | – | – | – | – | – | – | – | – | 1.88 µM | E. cloacae eradicated at lower concentrations in plasma (E. cloacae LUH15114; 50% plasma vs RPMI, 18 h): 4 fold; Concentrations inducing membrane permeabilization / SYTOX uptake (A. baumannii RUH875 [3]; 90 min, 37 °C): 0.47 to 3.75 µM |
